Assay results: patent US8580957B2, “Thetrahydroquinolines derivatives as bromodomain inhibitors” (GlaxoSmithKline LLC, priority 2009, dated 2013)
Structures can show the parent of a compound that is named as a salt. Where two headings read alike, the source gives them in different places.

Key:
[1] = tested on: TNFα levels in LPS stimulated whole blood; test: LPS Stimulated Whole Blood Measuring TNFα Levels Assay; assay type: cell-based; conditions: LPS 200 ng/ml, 24 hours, read-out: pIC50 (TNFα levels) (converted)
Description: LPS Stimulated Whole Blood Measuring TNFα Levels Assay
(§1) Activation of monocytic cells by agonists of toll-like receptors such as bacterial lipopolysaccharide (LPS) results in production of key inflammatory mediators including TNFα. Such pathways are widely considered to be central to the pathophysiology of a range of auto-immune and inflammatory disorders.
(§2) Compounds to be tested are diluted to give a range of appropriate concentrations and 1 ul of the dilution stocks is added to wells of a 96 plate. Following addition of whole blood (130 ul) the plates are incubated at 37 degrees (5% CO2) for 30 min before the addition of 10 ul of 2.8 ug/ml LPS, diluted in complete RPMI 1640 (final concentration=200 ng/ml), to give a total volume of 140 ul per well. After further incubation for 24 hours at 37 degrees, 140 ul of PBS are added to each well. The plates are sealed, shaken for 10 minutes and then centrifuged (2500 rpm×10 min). 100 ul of the supernatant are removed and TNFα levels assayed by immunoassay (typically by MesoScale Discovery technology) either immediately or following storage at −20 degrees. Dose response curves for each compound was generated from the data and an IC50 value was calculated.

[2] = tested on: LPS induced IL-6 secretion from whole blood; test: Measurement of LPS Induced IL-6 Secretion from Whole Blood; assay type: cell-based; conditions: LPS 200 ng/ml, 24 hours, read-out: pIC50 (IL-6 levels) (converted)
Description: Measurement of LPS Induced IL-6 Secretion from Whole Blood
as §1, with “IL-6.” for “TNFα.”
as §2, with “concentrations of which” for “concentrations and”, “the diluted” for “the dilution”, “to” for “to wells of”, “96 well” for “96”, “and IL-6” for “and TNFα”, “degrees. Concentration” for “degrees. Dose”

[3] = tested on: Balb/c male mice given a lethal dose of LPS; test: In Vivo Mouse Endotoxemia Model; conditions: 15 mg/kg LPS i.p.; compound 10 mg/kg intravenously 90 min later; summed across multiple repeat experiments
Description: In Vivo Mouse Endotoxemia Model
High doses of Endotoxin (bacterial lipopolysaccharide) administered to animals produce a profound shock syndrome including a strong inflammatory response, dysregulation of cardiovascular function, organ failure and ultimately mortality. This pattern of response is very similar to human sepsis and septic shock, where the body's response to a significant bacterial infection can be similarly life threatening.
To test the compounds of the invention groups of eight Balb/c male mice were given a lethal dose of 15 mg/kg LPS by intraperitoneal injection. Ninety minutes later, animals were dosed intravenously with vehicle (20% cyclodextrin 1% ethanol in apyrogen water) or compound (10 mg/kg). The survival of animals was monitored at 4 days.
Numbers of animals surviving at 4 days (summed across multiple repeat experiments)

[4] = tested on: Human cell lines (n=33 comprising 15 heme cell lines, 14 breast cell lines and 4 other cell lines); test: Oncology Growth Assay (CellTiter-Glo); assay type: cell-based; conditions: 72 hours
Description: Human cell lines (n=33 comprising 15 heme cell lines, 14 breast cell lines and 4 other cell lines) were cultured in RPMI-1640 containing 10% fetal bovine serum, 1000 viable cells per well were plated in 384-well black flat bottom polystyrene plates (Greiner #781086) in 48 μl of culture media. All plates were placed at 5% CO2, 37° C. overnight. The following day one plate was harvested with CellTiter-Glo (CTG, Promega #G7573) for a time equal to 0 (T0) measurement and compound (20 point titration from 14.7 uM to […]) was added to the remaining plates. The final concentration of DMSO in all wells was 0.15%. Cells were incubated for 72 hours or the indicated time and each plate was developed with CellTiter-Glo reagent using a volume equivalent to the cell culture volume in the wells. Plates were shaken for approximately 2 minutes and chemiluminescent signal was read on the Analyst GT (Molecular Devices) or EnVision Plate Reader (Perkin Elmer).
Results were expressed as a percent of the TO and plotted against the compound concentration. The TO value was normalized to 100% and represents the number of cells at time of compound addition and the concentration response data were fit with a 4 parameter curve fit using XLfit software (model 205). The concentration that inhibited cell growth by 50% (gIC50) is the midpoint of the ‘growth window’ (between the TO and DMSO control). The Ymin−T0 value is determined by subtracting the T0 value (100%) from the Ymin value (%) determined from the fit of the concentration response curve. Values from the wells with no cells were subtracted from all samples for background correction.

Row | melting point | IC50 [1] | Structure (SMILES) | further results
1 | 134 °C |  | CCNC(=O)c1ccc(-c2ccc3c(c2)[C@@H](Nc2ccc(Cl)cc2)C[C@@H](C)N3C(C)=O)cc1 (stereo in doubt) [Example 101, 4-{1-Acetyl-4-[(4-chlorophenyl)amino]-2-methyl-1,2,3,4-tetrahydro-6-quinolinyl}-N-ethylbenzamide] | 
2 | 140 °C |  | CC(=O)N1c2ccc(-c3ccc(C#N)cc3)cc2[C@@H](Nc2ccc(F)cc2)C[C@H]1C (racemic) [Example 62, 4-{1-acetyl-4-[(4-fluorophenyl)amino]-2-methyl-1,2,3,4-tetrahydro-6-quinolinyl}benzonitrile] | 
3 | 121 °C | ≤ 10 µM | CCN(c1ccccc1)[C@H]1C[C@@H](C)N(C(C)=O)c2ccc(-c3ccccc3)cc21 (stereo in doubt) [Example 87, 1-acetyl-N-ethyl-2-methyl-N,6-diphenyl-1,2,3,4-tetrahydro-4-quinolinamine] | 
4 | 146 °C | ≤ 10 µM | CC(=O)N1c2ccc(-c3ccc(C(=O)N4CCOCC4)cc3)cc2C(Nc2ccc(Cl)cc2)CC1C (stereo not shown) [Example 109] | 
5 |  | ≤ 10 µM | CC(=O)N1c2ccc(-c3ccc(CN4CCCCC4)cc3)cc2[C@H](Nc2ccccc2)C[C@@H]1C [Example 164, (2S,4R)-1-Acetyl-2-methyl-N-phenyl-6-[4-(1-piperidinylmethyl)phenyl]-1,2,3,4-tetrahydro-4-quinolinamine] | IC50 [2]: ≤ 10 µM
6 | 252 °C |  | COC(=O)c1ccc(-c2ccc3c(c2)C(Nc2ccc(C#N)cc2)CC(C)N3C(C)=O)cc1 (stereo not shown) [Example 82] | 

Further lines, the molecule ahead of its results:

Row | Structure (SMILES) | melting point | IC50 [1] | further results
7 | CC(=O)N1c2ccc(-c3ccc(CN(C)C)cc3)cc2[C@@H](Nc2ccccc2)C[C@H]1C (racemic) [Example 35, 1-acetyl-6-{4-[(dimethylamino)methyl]phenyl}-2-methyl-N-phenyl-1,2,3,4-tetrahydro-4-quinolinamine] | 90 °C |  | 
8 | CC(=O)N1c2ccc(-c3ccc(CN4CCCCC4)cc3)cc2[C@@H](Nc2ccc(F)cc2)C[C@H]1C (racemic) [Example 11, 1-Acetyl-2-methyl-N-(4-fluorophenyl)-6-[4-(1-piperidinylmethyl)phenyl]-1,2,3,4-tetrahydro-4-quinolinamine] | 106 °C |  | 
9 | CCOC(=O)c1ccc(-c2ccc3c(c2)[C@@H](Nc2ccc(Cl)cc2)C[C@@H](C)N3C(C)=O)cc1 (stereo in doubt) [Example 119, Ethyl 4-{1-acetyl-4-[(4-chlorophenyl)amino]-2-methyl-1,2,3,4-tetrahydro-6-quinolinyl}benzoate] | 114 °C |  | 
10 | CC(=O)N1c2ccc(-c3ccc(-c4nn[nH]n4)cc3)cc2[C@@H](Nc2ccc(Cl)cc2)C[C@H]1C (stereo in doubt) [Example 121, 1-Acetyl-N-(4-chlorophenyl)-2-methyl-6-[4-(1H-tetrazol-5-yl)phenyl]-1,2,3,4-tetrahydro-4-quinolinamine] | 250 °C |  | 
11 | CC(=O)N1c2ccc(-c3ccc(C(=O)O)cc3)cc2[C@H](Nc2ccc(Cl)cc2)C[C@@H]1C [Example 6, 4-{(2S,4R)-1-acetyl-4-[(4-chlorophenyl)amino]-2-methyl-1,2,3,4-tetrahydro-6-quinolinyl}benzoic acid] |  |  | Animals surviving at 4 days (percent) [3]: 58%; Numbers of animals surviving at 4 days [3]: 14/24; IC50 ([4]; all 33 cell lines, read-out: gIC50 across all cell lines): 0.035 to 9.2 µM; IC50 ([4]; breast cell lines, read-out: gIC50 for breast cell lines): 0.04 to 9.2 µM; IC50 ([4]; heme cell lines, read-out: gIC50 for heme cell lines): 0.035 to 0.844 µM; IC50 [2]: ≤ 10 µM
12 | CC(=O)N1c2ccc(-c3ccc(C(=O)O)cc3)cc2[C@@H](Nc2ccccc2)C[C@H]1C (stereo in doubt) [Example 91, 4-[1-Acetyl-2-methyl-4-(phenylamino)-1,2,3,4-tetrahydro-6-quinolinyl]benzoic acid] |  | ≤ 10 µM | 
13 | CC(=O)N1c2ccc(-c3ccc(CN4CCCCC4)cc3)cc2[C@@H](Nc2ccc(F)cn2)C[C@H]1C (racemic) [Example 137, (cis)-1-Acetyl-N-(5-fluoro-2-pyridinyl)-2-methyl-6-[4-(1-piperidinylmethyl)phenyl]-1,2,3,4-tetrahydro-4-quinolinamine formate salt] |  | ≤ 10 µM | IC50 [2]: ≤ 10 µM
